In ChEMBL document CHEMBL1201862, “PubChem BioAssay data set” (2004):
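All cell lines were grown in 96-well plates and treated with compound for 48 hours. Abbreviation: GI50, concentration required for 50% inhibition of growth.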 Calls of active or inactive are those of the source. No stated cut-off is given here; in the data, active = GI50 up to about 1.1 µM and inactive = higher.

Legend:
Assay in all cases: NCI anticancer screen, dose series, 48 h
RPMI-8226 = test system: RPMI-8226
MDA-N = test system: MDA-N
HCT-116 = test system: HCT-116
786-0 = test system: 786-0
UACC-257 = test system: UACC-257
SW-620 = test system: SW-620
MDA-MB-231 = test system: MDA-MB-231
NCI-H460 = test system: NCI-H460
HOP-92 = test system: HOP-92
SF-295 = test system: SF-295
BT-549 = test system: BT-549
HOP-62 = test system: HOP-62
IGROV-1 = test system: IGROV-1
TK-10 = test system: TK-10
HCT-15 = test system: HCT-15
SN12C = test system: SN12C
A498 = test system: A498
MCF7 = test system: MCF7
SF-539 = test system: SF-539
NCI-H522 = test system: NCI-H522

SMILES | GI50 (RPMI-8226) | GI50 (MDA-N) | GI50 (HCT-116) | GI50 (786-0) | GI50 (UACC-257) | GI50 (SW-620) | GI50 (MDA-MB-231) | GI50 (NCI-H460) | GI50 (HOP-92) | GI50 (SF-295) | GI50 (BT-549) | GI50 (HOP-62) | GI50 (IGROV-1) | GI50 (TK-10) | GI50 (HCT-15) [µM] | GI50 (SN12C) | GI50 (A498) | GI50 (MCF7) | GI50 (SF-539) | GI50 (NCI-H522)
CC(=O)Nc1ccc(Nc2cc(O)nc(O)n2)cc1 | > 100 µM (inactive) | > 100 µM (inactive) | > 100 µM (inactive) | > 100 µM (inactive) | > 100 µM (inactive) | > 100 µM (inactive) | > 100 µM (inactive) | > 100 µM (inactive) | > 100 µM (inactive) | > 100 µM (inactive) | > 100 µM (inactive) | > 100 µM (inactive) | > 100 µM (inactive) | > 100 µM (inactive) | > 100 | > 100 µM (inactive) | > 100 µM (inactive) | > 100 µM (inactive) | > 100 µM (inactive) | 
CN(C)CCCN1c2ccc3ccccc3c2Sc2cccc(Cl)c21 | 1.78 µM (inactive) | 2.38 µM (inactive) | 3.79 µM (inactive) | 2.99 µM (inactive) | 1.69 µM (inactive) | 2.04 µM (inactive) | 2.32 µM (inactive) | 1.77 µM (inactive) | 1.51 µM (inactive) | 3.91 µM (inactive) | 15.1 µM (inactive) | 2.85 µM (inactive) | 1.54 µM (inactive) | 2.52 µM (inactive) | 4.33 | 6.19 µM (inactive) | 9.82 µM (inactive) |  | 4.32 µM (inactive) | 2.61 µM (inactive)
COc1cc(-c2cc(=O)c3c(OC)c(OC)c(OC)cc3o2)c(OC)c(OC)c1OC | 25 µM (inactive) | > 75 µM (inactive) | > 75 µM (inactive) | > 75 µM (inactive) | > 75 µM (inactive) | > 75 µM (inactive) | 63.4 µM (inactive) | > 75 µM (inactive) | 14 µM (inactive) | > 75 µM (inactive) | 51.5 µM (inactive) | > 75 µM (inactive) | > 75 µM (inactive) | > 75 µM (inactive) | > 75 | > 75 µM (inactive) |  | > 75 µM (inactive) | > 75 µM (inactive) | > 75 µM (inactive)
CCc1n[nH]c(=O)n1/N=C(\C)c1ccccc1 | > 100 µM (inactive) | > 100 µM (inactive) | > 100 µM (inactive) | > 100 µM (inactive) | > 100 µM (inactive) | > 100 µM (inactive) | > 100 µM (inactive) |  |  | > 100 µM (inactive) | > 100 µM (inactive) | > 100 µM (inactive) | > 100 µM (inactive) | > 100 µM (inactive) | > 100 | > 100 µM (inactive) | > 100 µM (inactive) | > 100 µM (inactive) | > 100 µM (inactive) | > 100 µM (inactive)
COc1cccc2c1OC(c1cccc3ccccc13)C([N+](=O)[O-])=C2 (stereo not given) | 3.45 µM (inactive) | 1.93 µM (inactive) | 1.21 µM (inactive) | 1.87 µM (inactive) | 1.54 µM (inactive) |  | 2.12 µM (inactive) | 1.9 µM (inactive) |  | 1.88 µM (inactive) | 1.17 µM (inactive) | 2.1 µM (inactive) | 2.49 µM (inactive) | 2.32 µM (inactive) | 1.55 | 2 µM (inactive) |  | 0.728 µM (active) |  | 1.33 µM (inactive)
FC(F)(F)c1cc(Cl)cnc1N/N=C(/c1ccccc1)c1ccccn1 | 4.11 µM (inactive) | 17.8 µM (inactive) | 3.16 µM (inactive) | 2.84 µM (inactive) | 3.04 µM (inactive) | 3.85 µM (inactive) | 4.09 µM (inactive) | 3.68 µM (inactive) | 1.81 µM (inactive) | 2.16 µM (inactive) | 6.93 µM (inactive) | 3.98 µM (inactive) | 1.92 µM (inactive) |  | 0.74 | 5.36 µM (inactive) |  | 3.13 µM (inactive) | 3.66 µM (inactive) | 1.57 µM (inactive)
O=C(O)[C@H]1CCCN1CP(=O)(O)CN1CCC[C@@H]1C(=O)O |  | > 100 µM (inactive) | > 100 µM (inactive) | > 100 µM (inactive) | > 100 µM (inactive) | > 100 µM (inactive) | > 100 µM (inactive) | > 100 µM (inactive) | > 100 µM (inactive) | > 100 µM (inactive) | > 100 µM (inactive) | > 100 µM (inactive) | > 100 µM (inactive) |  | > 100 | > 100 µM (inactive) |  | > 100 µM (inactive) |  | > 100 µM (inactive)
O=C1C2Cc3c(n(C(=O)c4ccccc4)c4ccccc34)CC2C(=O)N1c1ccc(Nc2ccc(N3C(=O)C4Cc5c(n(C(=O)c6ccccc6)c6ccccc56)CC4C3=O)cc2)cc1 (stereo not given) |  | > 100 µM (inactive) | > 100 µM (inactive) | > 100 µM (inactive) | > 100 µM (inactive) |  | 24.3 µM (inactive) | > 100 µM (inactive) | 46 µM (inactive) | > 100 µM (inactive) | > 100 µM (inactive) | > 100 µM (inactive) | > 100 µM (inactive) | > 100 µM (inactive) | > 100 | > 100 µM (inactive) | > 100 µM (inactive) | > 100 µM (inactive) |  | > 100 µM (inactive)
O=C(O)c1ccc(/N=C(\C(=N\c2ccc(C(=O)O)cc2)c2ccccc2)c2ccccc2)cc1 | > 100 µM (inactive) | > 100 µM (inactive) | > 100 µM (inactive) | > 100 µM (inactive) | > 100 µM (inactive) | > 100 µM (inactive) | > 100 µM (inactive) | > 100 µM (inactive) |  | > 100 µM (inactive) | 33.5 µM (inactive) | > 100 µM (inactive) | > 100 µM (inactive) | > 100 µM (inactive) | > 100 | > 100 µM (inactive) | > 100 µM (inactive) | > 100 µM (inactive) |  | 
Cc1ccc(N2C(=O)C3c4[nH]c5ccc(C)cc5c4C4CCC(C(C)(C)C)CC4C3C2=O)cc1 (stereo not given) | 12.9 µM (inactive) | 21 µM (inactive) | 14.3 µM (inactive) | 4.9 µM (inactive) | 33.1 µM (inactive) | 12.1 µM (inactive) | 10.3 µM (inactive) | 7.36 µM (inactive) | 16.1 µM (inactive) | 15.2 µM (inactive) | 26.9 µM (inactive) | 10.8 µM (inactive) | 13.1 µM (inactive) | 16.5 µM (inactive) | 49.8 | 12.6 µM (inactive) |  | 11.3 µM (inactive) |  | 14.3 µM (inactive)
CCCCCCCCCC(=O)NC(CCC(=O)N(CCNC(=O)c1nc(-c2ccccc2)oc1-c1ccccc1)Cc1ccccc1)C(=O)O (stereo not given) | 17.3 µM (inactive) | 18.4 µM (inactive) | 17.7 µM (inactive) | 17.7 µM (inactive) | 23.4 µM (inactive) | 23.3 µM (inactive) | 19.9 µM (inactive) | 38.1 µM (inactive) | 17.6 µM (inactive) | 18.1 µM (inactive) | 19.3 µM (inactive) | 16.4 µM (inactive) | 19.5 µM (inactive) | 22.4 µM (inactive) | 16 | 18.7 µM (inactive) | 21.2 µM (inactive) |  | 24 µM (inactive) | 18.5 µM (inactive)
N#Cc1nc(-c2ccc(-c3nc(C#N)c(N)o3)cc2)oc1N | > 10 µM (inactive) | > 10 µM (inactive) | > 10 µM (inactive) | > 10 µM (inactive) | > 10 µM (inactive) | > 10 µM (inactive) | > 10 µM (inactive) | > 10 µM (inactive) | > 10 µM (inactive) | > 10 µM (inactive) | > 10 µM (inactive) | > 10 µM (inactive) | > 10 µM (inactive) | > 10 µM (inactive) | > 10 | > 10 µM (inactive) |  | > 10 µM (inactive) | > 10 µM (inactive) | > 10 µM (inactive)
COc1ccc(NC(=O)CC(=O)NN)cc1 | > 100 µM (inactive) | > 100 µM (inactive) | > 100 µM (inactive) | > 100 µM (inactive) | > 100 µM (inactive) | > 100 µM (inactive) | > 100 µM (inactive) | > 100 µM (inactive) | 64 µM (inactive) | > 100 µM (inactive) | > 100 µM (inactive) | > 100 µM (inactive) | > 100 µM (inactive) | > 100 µM (inactive) | > 100 | > 100 µM (inactive) |  | > 100 µM (inactive) | > 100 µM (inactive) | > 100 µM (inactive)
Clc1ccc(Cc2nc3ccccc3nc2-c2cccc(Br)c2)cc1 | 1.64 µM (inactive) | 1.97 µM (inactive) | 1.88 µM (inactive) | 1.75 µM (inactive) | 3.1 µM (inactive) | 2.04 µM (inactive) | 3.6 µM (inactive) | 18.3 µM (inactive) | 0.243 µM (active) | 16.1 µM (inactive) | 3.5 µM (inactive) | 17.9 µM (inactive) | 1.8 µM (inactive) | 13.7 µM (inactive) | 1.41 | 3.1 µM (inactive) |  | 3.17 µM (inactive) | 2.26 µM (inactive) | 1.78 µM (inactive)
O=C1c2cccc3cccc(c23)C(=O)N1CCCNOCCONCCCN1C(=O)c2cccc3cccc(c23)C1=O | 16.9 µM (inactive) | > 100 µM (inactive) | 27.4 µM (inactive) | 33.5 µM (inactive) | 67.6 µM (inactive) | 66.4 µM (inactive) | > 100 µM (inactive) | 59.4 µM (inactive) | 56 µM (inactive) | > 100 µM (inactive) | 73.3 µM (inactive) | 62.1 µM (inactive) | 62.8 µM (inactive) | > 100 µM (inactive) | 44 |  | > 100 µM (inactive) | 64.7 µM (inactive) |  | 
